In publication PMC9820559, “Investigation of the Fuzzy Complex between RSV Nucleoprotein and Phosphoprotein to Optimize an Inhibition Assay by Fluorescence Polarization” (International Journal of Molecular Sciences, 2022):
Peptide text beside a SMILES is read from it. * marks the point of attachment. FITC = O=C1OC2(c3ccc(O)cc3Oc3cc(O)ccc32)c2ccc(NC(=S)*)cc21; X1 = Cc1cc(C)n2c1C=C1C=CC(CCC(=O)*)=[N+]1[B-]2(C#N)C#N

Molecular target: T1, RSV N-RNA complex (Human respiratory syncytial virus A, UniProt P03418)
T1 construct: Full-length N was produced by co-expression with the C-terminal domain of RSV P protein in E. coli BL21(DE3); made in house; host or cells: E. coli BL21(DE3), co-transformed with pET-N and pGEX-P(161–241)
Test: biochemical
Type: binding
Conditions: for FP values compared to fluorescein at the same N-RNA concentrations: 200 nM probe, also bound to N-RNA
Description: We carried out FP measurements using the fluorescent F11 peptide and N-RNA complex. […] No salt was added to promote high affinity.
We first measured binding of Fn peptides (200 nM) to N-RNA in Tris buffer by FP (Figure 5A,B). […] We fitted the data with ΔFPmax and Kd as parameters.
We therefore measured fluorescein FP in the presence of N-RNA. […] To test if fluorescein binds to the P-binding site on the N-RNA, we carried out a competition experiment with M76 (Figure 6C).
We first performed FP measurements in salt-free Tris pH 8 buffer (Figure 8A). We measured binding curves using 200 nM of fluorescent peptides.
Fluorescence polarization measurements were carried out on a Paradigm Detection Platform (Beckman Coulter, Brea, CA, USA) operating with a microplate reader, a fluorescein detection cartridge (excitation range 485/20 nm, emission range 535/25 nm for both parallel and perpendicular components) and the SpectraMax Pro 6.1 software (Molecular Devices, San Jose, CA, USA). Samples were placed in polystyrene black flat bottom 96-well microplates (Cellstar, Greiner bio-one, Frickenhausen, Germany) with 20 µL final volume in each well. If not stated otherwise, the final concentration of fluorescent ligands was 200 nM. The buffer was either 20 mM MES pH 6.5, salt-free or with 250 mM NaCl, or 20 mM Tris pH 8.0 salt-free or with 100 mM NaCl, supplemented with 0.01% Brij-35. Mixing was done using the corresponding plate reader option. The temperature was set to 20 °C. Data were recorded in top reading mode. Measurements were done in triplicate and after an incubation time of 30 min, if not indicated otherwise. Fluorescence polarization (FP) in mFP units was determined from the parallel (I∥) and perpendicular (I⊥) components of the emitted light according to Equation (4). A grating factor G of 1.2 was determined using 1 nM fluorescein in 1 mM NaOH and assuming a theoretical FP of 27 mFP [48]. Background signal was measured from wells containing only buffer, and the mean value was subtracted from each I∥ and I⊥ component. (4) FP (mP)=1000×(I∥−G∗I⊥)/(I∥+G×I⊥)
We assumed that the measured fluorescence polarization FP is a linear combination of the FP of the fluorescent probe in the absence of N protein (FPmin) and the FP of N-bound fluorescent probe (FPmax), weighted by the molar fraction. The molar fraction x = [P]bound/[P]0 can then be expressed as a ratio of FP differences (Equation (8)). (8) x=(FP−FPmin)/(FPmax−FPmin)=∆FP/∆FPmax
To determine the Kd value of a complex between a fluorescent probe and N protein, a series of samples with constant probe concentration and varying N concentration was measured. FP binding curves were fitted with a single binding site model and a 1:1 stoichiometry.

[1] = Kd, Fn peptides 200 nM, Tris pH 8.0 without salt, single site model combined with linear contribution (*)
[2] = apparent Kd, fluorescent molecules 200 nM, Tris pH 8 without salt, calculated assuming FPmax = 500 mFP
[3] = Kd, BCNn peptides 200 nM, Tris pH 8.0, no salt, single site model
[4] = Kd, Fn peptides 200 nM, Tris pH 8.0 without salt, single site binding model

`CC(C)C[C@H](NC(=O)[C@H](CCC(=O)O)NC(=O)[C@H](CC(C)C)NC(=O)[C@H](CC(=O)O)NC(=O)[C@H](CC(N)=O)NC(=O)[C@H](CC(=O)O)NC(=O)[C@H](CCC(=O)O)NC(=O)[C@H](CC(=O)O)NC(=S)Nc1ccc2c(c1)C(=O)OC21c2ccc(O)cc2Oc2cc(O)ccc21)C(=O)N[C@@H](CCC(=O)O)C(=O)N[C@@H](CC(=O)O)C(=O)N[C@@H](Cc1ccccc1)C(=O)O` [F11EE, ϕ-DE232DNDLE237LEDF-OH] ({FITC}-DEDNDLELEDF-OH) showed a ΔFPmax (Fn peptides 200 nM, Tris pH 8.0 without salt, single site binding model) of 114 ± 6 mFP, a ΔFPmax (Fn peptides 200 nM, Tris pH 8.0 without salt, single site model combined with linear contribution (*)) of 93 ±13 mFP and a Kd [1] of 0.15 µM. For the same molecule, the “increase of affinity relative to F11 by phosphomimetic substitutions” value (Tris pH 8.0 without salt) was 20 fold.

In the case of `Cc1cc(C)n2c1C=C1C=CC(CCC(=O)O)=[N+]1[B-]2(F)F` [4,4′ difluoro BODIPY FL 4, 4,4′ difluoro BODIPY FL], the “FP values compared to fluorescein at the same N-RNA concentrations” value (Tris pH 8 without salt) is reported as “markedly lower” and the Kd [2] is reported as 870 ± 140 µM.

With `Cc1cc(C)n2c1C=C1C=CC(CCC(=O)N[C@@H](CCC(=O)O)C(=O)N[C@@H](CC(=O)O)C(=O)N[C@@H](CC(N)=O)C(=O)N[C@@H](CC(=O)O)C(=O)N[C@@H](CC(C)C)C(=O)N[C@@H](CCC(=O)O)C(=O)N[C@@H](CC(C)C)C(=O)N[C@@H](CCC(=O)O)C(=O)N[C@@H](CC(=O)O)C(=O)N[C@@H](Cc3ccccc3)C(=O)O)=[N+]1[B-]2(C#N)C#N` [BCN10EE] (X1-EDNDLELEDF-OH) the Kd [3] was 0.16 ± 0.03 µM.

Molecule `CC(C)C[C@H](NC(=O)[C@H](CCC(=O)O)NC(=O)[C@H](CC(C)C)NC(=O)[C@H](CC(=O)O)NC(=O)[C@H](CC(N)=O)NC(=O)[C@H](CC(=O)O)NC(=O)[C@H](CO)NC(=O)[C@H](CC(=O)O)NC(=S)Nc1ccc2c(c1)C(=O)OC21c2ccc(O)cc2Oc2cc(O)ccc21)C(=O)N[C@@H](CCC(=O)O)C(=O)N[C@@H](CC(=O)O)C(=O)N[C@@H](Cc1ccccc1)C(=O)O` [F11SE, ϕ-DS232DNDLE237LEDF-OH] ({FITC}-DSDNDLELEDF-OH) has a Kd [4] of under 1 µM and a Kd [1] of 0.62 µM.

Molecule `Cc1cc(C)n2c1C=C1C=CC(CCC(=O)N[C@@H](CCC(=O)O)C(=O)N[C@@H](CC(C)C)C(=O)N[C@@H](CCC(=O)O)C(=O)N[C@@H](CC(=O)O)C(=O)N[C@@H](Cc3ccccc3)C(=O)O)=[N+]1[B-]2(C#N)C#N` [BCN5E, BCN-ELEDF-OH] (X1-ELEDF-OH) has a Kd [3] of 9.8 ± 0.9 µM.

With `CC(C)C[C@H](NC(=O)[C@H](CCC(=O)O)NC(=O)[C@H](CC(C)C)NC(=O)[C@H](CC(=O)O)NC(=S)Nc1ccc2c(c1)C(=O)OC21c2ccc(O)cc2Oc2cc(O)ccc21)C(=O)N[C@@H](CCC(=O)O)C(=O)N[C@@H](CC(=O)O)C(=O)N[C@@H](Cc1ccccc1)C(=O)O` [F7E, ϕ-DLE237LEDF-OH] ({FITC}-DLELEDF-OH) the Kd [4] was 2.5 ± 0.3 µM.

With `O=C(O)c1ccccc1-c1c2ccc(=O)cc-2oc2cc(O)ccc12` [Fluorescein 1, Fluorescein] the Kd [2] was 91 ± 5 µM.

`Cc1cc(C)n2c1C=C1C=CC(CCC(=O)N[C@@H](CC(=O)O)C(=O)N[C@@H](CC(C)C)C(=O)N[C@@H](CCC(=O)O)C(=O)N[C@@H](CC(C)C)C(=O)N[C@@H](CCC(=O)O)C(=O)N[C@@H](CC(=O)O)C(=O)N[C@@H](Cc3ccccc3)C(=O)O)=[N+]1[B-]2(C#N)C#N` [BCN7E, BCN-DLELEDF-OH] (X1-DLELEDF-OH) was tested, and the Kd [3] was 2.2 ± 0.2 µM.

Molecule `CCOC(=O)c1ccccc1-c1c2ccc(=O)cc-2oc2cc(O)ccc12` [Fluorescein ethyl ester 3, fluorescein ethyl ester] has a Kd [2] of 250 ± 27 µM.

`O=C(O)CC[C@H](NC(=S)Nc1ccc2c(c1)C(=O)OC21c2ccc(O)cc2Oc2cc(O)ccc21)C(=O)N[C@@H](CC(=O)O)C(=O)N[C@@H](Cc1ccccc1)C(=O)O` [F3, ϕ-EDF-OH] ({FITC}-Glu-Asp-Phe-OH) was tested, and the Kd [4] was 62 ± 19 µM.

Molecule `CC(C)C[C@H](NC(=O)[C@H](CCC(=O)O)NC(=O)[C@H](CC(C)C)NC(=O)[C@H](CC(=O)O)NC(=O)[C@H](CC(N)=O)NC(=O)[C@H](CC(=O)O)NC(=S)Nc1ccc2c(c1)C(=O)OC21c2ccc(O)cc2Oc2cc(O)ccc21)C(=O)N[C@@H](CCC(=O)O)C(=O)N[C@@H](CC(=O)O)C(=O)N[C@@H](Cc1ccccc1)C(=O)O` [F9E, ϕ-DNDLE237LEDF-OH] ({FITC}-DNDLELEDF-OH) has a Kd [4] of 2.2 ± 0.3 µM.

`CC(C)C[C@H](NC(=S)Nc1ccc2c(c1)C(=O)OC21c2ccc(O)cc2Oc2cc(O)ccc21)C(=O)N[C@@H](CCC(=O)O)C(=O)N[C@@H](CC(=O)O)C(=O)N[C@@H](Cc1ccccc1)C(=O)O` [F4, ϕ-LEDF-OH] ({FITC}-LEDF-OH) gave a Kd [4] of 35 ± 4 µM.

`Cc1cc(C)n2c1C=C1C=CC(CCC(=O)N[C@@H](CC(C)C)C(=O)N[C@@H](CCC(=O)O)C(=O)N[C@@H](CC(C)C)C(=O)N[C@@H](CCC(=O)O)C(=O)N[C@@H](CC(=O)O)C(=O)N[C@@H](Cc3ccccc3)C(=O)O)=[N+]1[B-]2(C#N)C#N` [BCN6E, BCN-LELEDF-OH] (X1-LELEDF-OH) was tested, and the Kd [3] was 2.3 ± 0.2 µM and the Kd (Kd, BCNn peptides 200 nM, Tris pH 8.0, with salt (100 mM NaCl), (*) saturation not reached) was 12.6 ± 1.6 µM.

For `COC(=O)c1ccccc1-c1c2ccc(=O)cc-2oc2cc(O)ccc12` [Fluorescein methyl ester 2, fluorescein methyl ester], the Kd [2] was 200 ± 8 µM.

In the case of `Cc1cc(C)n2c1C=C1C=CC(CCC(=O)O)=[N+]1[B-]2(C#N)C#N` [dicyano BODIPY FL 5, 3-(5,5-dicyano-7,9-dimethyl-5H-4λ^4,5λ^4-dipyrrolo[1,2-c:2′,1′-f][1,3,2]diazaborinin-3-yl)propanoic acid], the “FP values compared to fluorescein at the same N-RNA concentrations” value (Tris pH 8 without salt) is reported as “markedly lower”.

`Cc1cc(C)n2c1C=C1C=CC(CCC(=O)N[C@@H](CC(=O)O)C(=O)N[C@@H](CO)C(=O)N[C@@H](CC(=O)O)C(=O)N[C@@H](CC(N)=O)C(=O)N[C@@H](CC(=O)O)C(=O)N[C@@H](CC(C)C)C(=O)N[C@@H](CCC(=O)O)C(=O)N[C@@H](CC(C)C)C(=O)N[C@@H](CCC(=O)O)C(=O)N[C@@H](CC(=O)O)C(=O)N[C@@H](Cc3ccccc3)C(=O)O)=[N+]1[B-]2(C#N)C#N` [BCN11SE] (X1-DSDNDLELEDF-OH) showed a Kd [3] of 0.8 µM.
